Measured values taken from PMC9579956 (RSC Medicinal Chemistry, 2022).

Target: Mycobacterium thermoresistible (Mtr) LpqY (Mycolicibacterium thermoresistibile, UniProt G7CES0)
Format: binding
Conditions: single dose MST screen against LpqY

Chain of Mycobacterium thermoresistible (Mtr) LpqY (G7CES0 29-471): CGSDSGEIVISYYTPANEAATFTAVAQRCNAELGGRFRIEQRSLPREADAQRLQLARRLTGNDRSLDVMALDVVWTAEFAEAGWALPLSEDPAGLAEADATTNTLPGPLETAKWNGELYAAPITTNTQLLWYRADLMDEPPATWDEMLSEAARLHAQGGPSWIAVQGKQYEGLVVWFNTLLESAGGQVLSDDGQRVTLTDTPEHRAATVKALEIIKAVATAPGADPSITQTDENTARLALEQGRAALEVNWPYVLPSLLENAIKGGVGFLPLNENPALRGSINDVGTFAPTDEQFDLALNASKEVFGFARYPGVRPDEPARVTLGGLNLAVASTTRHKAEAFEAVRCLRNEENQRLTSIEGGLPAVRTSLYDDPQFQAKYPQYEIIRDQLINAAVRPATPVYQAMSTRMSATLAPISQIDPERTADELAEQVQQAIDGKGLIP

SMILES | Pathogen Box screen signal/noise ratio
O[C@@H](c1cc(C(F)(F)F)nc2c(C(F)(F)F)cccc12)[C@H]1CCCCN1 [MMV000016] | 1.8
N=C(N)c1ccc(OCCCCCOc2ccc(C(=N)N)cc2)cc1 [MMV000062] | 0.3
CCN(CC)CCCCCCNc1cc(OC)cc2c(C)ccnc12 [MMV000063] | 2.2
O=S(=O)(c1ccc(Cl)cc1)N1CCN(C(=S)NCc2ccco2)CC1 [MMV000858] | 2.2
COc1cccc2c(C)nc(N=C(N)N)nc12 [MMV000907] | 1.1
CCCS(=O)(=O)N1CCC(CO)(Cc2ccccc2C(F)(F)F)CC1 [MMV001059] | 0.0926
COC(=O)C1=C(C)NC(C)=C(C(=O)OC(C)C)C1c1cccc2nonc12 (stereo not shown) [MMV001493] | 1.1
CC1CS(=O)(=O)CCN1/N=C/c1ccc([N+](=O)[O-])o1 (stereo not shown) [MMV001499] | 2.4
CNCCC(Oc1ccc(C(F)(F)F)cc1)c1ccccc1 (stereo not shown) [MMV001561] | 0.9
NCCCC(N)(C(=O)O)C(F)F (stereo not shown) [MMV001625] | 0.316
O=C(C1CCCCC1)N1CC(=O)N2CCc3ccccc3C2C1 (stereo not shown) [MMV002529] | 0.167
CCN(CC)C(=O)N1CCN(C)CC1 [MMV002816] | 1.5
Oc1c(I)cc(I)c2cccnc12 [MMV002817] | 0.152
COC(=O)Nc1nc2cc(C(=O)c3ccccc3)ccc2[nH]1 [MMV003152] | 1.9
CN1CCCN(C(c2ccccc2)c2ccc(Cl)cc2)CC1 (stereo not shown) [MMV004168] | 0.9
O=C1Nc2ccc(Br)cc2C12NCCc1c2[nH]c2ccccc12 (stereo not shown) [MMV006239] | 2.0
Cc1ccc2[nH]c3c(NCCN(C)C)ncnc3c2c1 [MMV006372] | 0.333
COc1cc2ncnc(NC3CCN(Cc4ccccc4)CC3)c2cc1OC [MMV006741] | 4.3
Cc1cc(Cl)c(S(=O)(=O)N2CCCC2)cc1OCC(=O)NC1CCCCC1 [MMV006833] | 1.6
CN(C)c1cc(NC(=O)Nc2ccccc2)c2ccccc2n1 [MMV006901] | 1.2
Cc1cc(NC(=O)c2ccc(S(=O)(=O)N(Cc3ccccc3)C(C)C)cc2)no1 [MMV007133] | 0.4

SMILES | Pathogen Box screen signal/noise ratio
COc1cc(OC)cc(C(=O)NCC2Cc3cc(Cl)cc(-c4ccncc4)c3O2)c1 (stereo not shown) [MMV007471] | 0.2
Cc1cc(C)n(-c2ccc(NC(=O)C3CCN(Cc4cnc(C)s4)CC3)cc2)n1 [MMV007625] | 1.4
CCOc1ccc(-c2nc(NC(=O)CS(=O)(=O)c3ccccc3)sc2C)cc1 [MMV007638] | 0.254
O=C(NC1CC1)c1ccc(CSCc2ccccc2Cl)o1 [MMV007803] | 0.148
Nc1ccc(C(=O)Nc2ccc(-c3nc4ccccc4o3)cc2)cc1 [MMV007920] | 0.9
COc1ccc(CN2CCOc3ccc(C(C)(O)CN(C)C)cc3C2)cc1C (stereo not shown) [MMV008439] | 0.222
Cc1cc(C(=O)Nc2cnn(Cc3ccc(Cl)cc3Cl)c2)no1 [MMV009054] | 0.179
O=C(C1CCN(c2nnnn2-c2ccccc2)CC1)N1CCc2ccccc2C1 [MMV009135] | 1.2
COc1ccc(-c2cnc3ccc(NCc4ccc(S(N)(=O)=O)cc4)nn23)cn1 [MMV010545] | 0.463
COc1cc(-c2cc(-c3ccc(S(C)(=O)=O)cc3)cnc2N)ccc1O [MMV010576] | 3.1
c1csc(-c2cnc3sc(NCC4CCOCC4)nn23)c1 [MMV010764] | 0.667
Cc1cc(Nc2ccc(C(F)(F)F)cc2)n2ccnc2n1 [MMV011229] | 0.2
COc1ccc(CCN2CCC(NCc3cccc(N(C)C)c3)CC2)cc1 [MMV011511] | 0.8
NCC(=O)N1CCn2c(nc(-c3ccccc3)c2Nc2ccc3c(c2)OCO3)C1 [MMV011691] | 1.3
FC(F)(F)c1cnc(Sc2nnc(-c3ccncc3)o2)c(Cl)c1 [MMV011765] | 1.6
Cc1ccc(NC(=O)c2nc[nH]c2C(=O)Nc2nc3ccccc3[nH]2)c(C)c1 [MMV011903] | 1.4
Cc1nc2ccccn2c1C(=O)NCc1ccc(Cl)cc1 [MMV012074] | 1.0
Cc1cc(Nc2ccncc2)n2nc(C)c(-c3ccccc3Cl)c2n1 [MMV016136] | 1.7
Cc1ccc(-c2cc(C(=O)Nc3cccnc3)c3cc(Br)ccc3n2)cc1 [MMV016838] | 0.75
Cc1cc(C)n2nc(C(=O)Nc3cc(C(F)(F)F)ccc3N3CCOCC3)nc2n1 [MMV019087] | 1.2
Cc1ccc2c(c1C)NC(=O)C21NN=C(c2ccccc2)S1 (stereo not shown) [MMV019189] | 1.4

SMILES | Pathogen Box screen signal/noise ratio
COc1ccc(C2CC(c3cccs3)=NN2C(=O)c2ccco2)cc1OC (stereo not shown) [MMV019234] | 2.1
CCC(NC(=O)c1ccccc1NC(=O)c1ccc(C)cc1)C(=O)OC (stereo not shown) [MMV019551] | 0.267
CCN(CC)S(=O)(=O)c1ccc(Cl)c(C(=O)Nc2ccc3nc(C)sc3c2)c1 [MMV019721] | 1.3
Cc1ccc(S(=O)(=O)N2CCN(C(=O)c3cc(-c4ccccc4)[nH]n3)CC2)cc1 [MMV019742] | 0.286
CCOc1ccccc1C(=O)Nc1cccc(-c2nc3ncccn3c2C)c1 [MMV019790] | 1.6
Cc1ccc2cc(C3NC(=O)c4ccccc4N3)c(Cl)nc2c1 (stereo not shown) [MMV019807] | 0.7
O=C(Nc1ccnc(-c2cccnc2)n1)c1cc(C(F)(F)F)cc(C(F)(F)F)c1 [MMV019838] | 2.8
Cc1nn(C)cc1C(C)Nc1nncc(-c2ccc(C(F)(F)F)cc2)n1 (stereo not shown) [MMV019993] | 0.25
COc1cccc(CC(=O)N2CCC(n3c(C)nc4ccc(F)cc43)CC2)c1 [MMV020081] | 0.152
CC1CC1C(=O)NC1CCN(CC2(c3ccccc3)CCCCC2)CC1 (stereo not shown) [MMV020120] | 1.1
CNC(=O)c1cc(S(=O)(=O)N2CCN(c3ccccn3)CC2)cs1 [MMV020136] | 0.5
Cc1cc(C(=O)Nc2ccc(-c3ccccc3)cc2)no1 [MMV020152] | 0.742
CC(C)NCC(=O)Nc1cccc(C(=O)Nc2cccc(C(F)(F)F)c2)c1 [MMV020165] | 4.3
Cc1ccc(NC(=O)c2cc(S(=O)(=O)NC(C)(C)C)ccc2C)nc1 [MMV020289] | 1.4
CC(C(=O)N1CCCC1)N1CCN(S(=O)(=O)c2ccc(C(C)(C)C)cc2)CC1 (stereo not shown) [MMV020291] | 1.8
Cc1nnc(NC(=O)c2cn(-c3ccccc3)nc2-c2ccccc2C)o1 [MMV020320] | 0.6
CC1CCCN(C(=O)C(C)Nc2cc(Cl)ccc2N2CCOCC2)C1 (stereo not shown) [MMV020388] | 0.556
CC(C)C(C(=O)Nc1ccc(S(=O)(=O)N(C)C)cc1)c1ccc(Cl)cc1 (stereo not shown) [MMV020391] | 0.25
Cc1ccc(Oc2ccc(NC(=O)CNc3ccccc3N3CCCC3=O)cc2)cc1 [MMV020512] | 3.4
COc1ccccc1CNC(=O)c1cc(C2CC2)nc2c1cnn2C(C)C [MMV020517] | 2.3
Cc1cc2ccccc2n1CC(=O)N1CC(C(=O)N2CCCCC2)Oc2ccccc21 (stereo not shown) [MMV020520] | 2.0

SMILES | Pathogen Box screen signal/noise ratio
O=C(NC1CC1)c1ccc(N2CCOc3ccc(Cl)cc32)s1 [MMV020537] | 1.9
CC(C)C(NC(=O)Cc1cccc2ccccc12)C(=O)Nc1cccc(C#N)c1 (stereo not shown) [MMV020591] | 0.25
Cc1noc(C)c1C(=O)N1CCCC(c2[nH]c3c(C)cccc3c2-c2ccncc2)C1 (stereo not shown) [MMV020623] | 2.5
COc1ccc(-c2cncc3ccc(C(=O)NCCCn4ccnc4)nc23)cc1 [MMV020670] | 2.7
COc1ccc(Cl)cc1NC(=O)CN(C)C(=O)c1cnn(-c2ccccc2)n1 [MMV020710] | 1.8
CC(C)(C)c1cc(C(=O)Nc2cccnc2)cc(C(=O)Nc2cccnc2)c1 [MMV020982] | 1.3
c1ccc(-c2nc(NC3CCCCC3)cc(C3CC3)n2)nc1 [MMV021013] | 0.0694
CO/C=C(/C(=O)OC)c1ccccc1Oc1cc(Oc2ccccc2C#N)ncn1 [MMV021057] | 0.6
Cc1cc(NCC(C)C)c2n[nH]c(-c3ccccc3)c2n1 [MMV021375] | 0.9
Cc1cc(NCCc2ccccc2)nc(NC(=N)Nc2ccc(Cl)cc2)n1 [MMV021660] | 1.6
CN1CCC(NCc2cccc(-c3ccc(S(=O)(=O)NCc4ccccc4)cc3)c2)CC1 [MMV022029] | -0.0167
CCN(CC)CCCN1CCN(C(=O)c2cccc(-c3noc(C(F)(F)F)n3)c2)CC1 [MMV022236] | 0.542
O=C(Nc1ccc(N2CCNCC2)cc1)c1ccn2ncc(-c3cccc(Cl)c3)c2n1 [MMV022478] | 2.0
c1ccc2c(c1)CN(CC1CC1)CC1(CCN(Cc3c[nH]c4cnccc34)CC1)O2 [MMV023183] | 2.8
Cc1nc(-c2cccc(NCc3ccccc3)c2)[nH]c1C [MMV023227] | 1.4
Nc1nccc2ccc(-c3ccc4nccn4c3)cc12 [MMV023233] | 0.9
Nc1ncc(-c2cn[nH]c2)cc1-c1nc2cc(Cl)cnc2[nH]1 [MMV023370] | 1.1
O=C(NC1CCN(c2ccnc3ccccc23)C1)c1cccc(C(F)(F)F)c1 (stereo not shown) [MMV023388] | -0.0357
NS(=O)(=O)c1cccc(-c2ccc3ncc(N4CCOCC4)nc3c2)c1 [MMV023860] | 1.6
